Results as given in patent publication US6077680A (The University of Florida, dated 2000).

Tests used:
[1] = test system: rat brain membrane K channels (primarily Kv1.2); type: binding; details: for IC50: read-out: IC50 Rat Brain 125I-CTX
[2] = biological target: rat brain membrane K channels (delayed rectifier, primarily Kv1.2) (rat) (UniProt P63142); test: 125I-DTX displacement, rat brain membranes
[3] = biological target: Kv1.3 potassium channels in Jurkat T lymphocytes (Homo sapiens, UniProt P22001); type: cell-based
Sequence of Kv1.3 potassium channels in Jurkat T lymphocytes (P22001 whole entry): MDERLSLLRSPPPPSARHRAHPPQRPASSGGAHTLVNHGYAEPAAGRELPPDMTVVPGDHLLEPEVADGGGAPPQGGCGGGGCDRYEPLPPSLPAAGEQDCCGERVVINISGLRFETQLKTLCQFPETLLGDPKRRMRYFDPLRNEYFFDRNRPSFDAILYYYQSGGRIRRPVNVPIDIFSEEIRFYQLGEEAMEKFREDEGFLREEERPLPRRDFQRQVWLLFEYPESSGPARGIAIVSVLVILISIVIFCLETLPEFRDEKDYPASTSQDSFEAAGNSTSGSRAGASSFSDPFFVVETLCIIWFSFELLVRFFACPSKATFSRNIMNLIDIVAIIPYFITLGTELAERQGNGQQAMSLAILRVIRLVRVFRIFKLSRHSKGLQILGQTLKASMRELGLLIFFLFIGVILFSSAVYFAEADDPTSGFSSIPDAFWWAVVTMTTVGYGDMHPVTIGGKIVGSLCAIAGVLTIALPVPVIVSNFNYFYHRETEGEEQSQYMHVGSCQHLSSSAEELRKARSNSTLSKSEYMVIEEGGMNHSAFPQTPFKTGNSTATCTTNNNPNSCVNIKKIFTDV

RSCIDSTIPKSRCTAAQKHSMKYRASFCRKTCGTC [A15 + A25]
Equipotent Molar Ratio (Analog IC50 /ShK IC50) [1]: 2.1
Free Energy Differ. of Binding ΔF [1]: 0.43
IC50 Ratio [1]: 2.1
ΔF [1]: 0.43

ShK I7A (peptide)
IC50 ratio (analog IC50/ShK IC50) [2]: 5.2
free energy difference of binding [2]: 0.96 kcal/mol

CC[C@H](C)[C@@H]1NC(=O)[C@@H](NC(=O)[C@H](CO)NC(=O)[C@@H](N)CCCNC(=N)N)CSSC[C@@H](C(=O)O)NC(=O)[C@H]([C@@H](C)O)NC(=O)CNC(=O)[C@@H]2CSSC[C@@H]3NC(=O)[C@H](CCC(N)=O)NC(=O)[C@H](Cc4ccccc4)NC(=O)[C@H](C)NC(=O)[C@H]([C@@H](C)O)NC(=O)[C@H](CSSC[C@H](NC(=O)[C@H](Cc4ccccc4)NC(=O)[C@H](CO)NC(=O)[C@H](C)NC(=O)[C@H](CCCNC(=N)N)NC(=O)[C@H](Cc4ccc(O)cc4)NC(=O)[C@H](CCCCN)NC(=O)[C@H](CCSC)NC(=O)[C@H](CO)NC(=O)[C@H](Cc4c[nH]cn4)NC(=O)[C@H](CCCCN)NC3=O)C(=O)N[C@@H](CCCNC(=N)N)C(=O)N[C@@H](CCCCN)C(=O)N[C@@H]([C@@H](C)O)C(=O)N2)NC(=O)[C@H](CCCNC(=N)N)NC(=O)[C@H](CO)NC(=O)[C@H](CCCCN)NC(=O)[C@@H]2CCCN2C(=O)[C@H]([C@@H](C)CC)NC(=O)[C@H]([C@@H](C)O)NC(=O)[C@H](CC(=O)O)NC1=O [L25A]
Difference of Free Energy of Binding [1]: 0.20
IC50 Ratio [1]: 1.4

CCCC[C@@H]1NC(=O)[C@H](CO)NC(=O)[C@H](Cc2c[nH]cn2)NC(=O)[C@H](CCCCN)NC(=O)[C@@H]2CSSC[C@@H]3NC(=O)[C@H]([C@@H](C)O)NC(=O)[C@H](CCCCN)NC(=O)[C@H](CCCNC(=N)N)NC(=O)[C@H](CSSC[C@H](NC(=O)[C@H](CCCNC(=N)N)NC(=O)[C@H](CO)NC(=O)[C@H](CCCCN)NC(=O)[C@@H]4CCCN4C(=O)[C@H]([C@@H](C)CC)NC(=O)[C@H]([C@@H](C)O)NC(=O)[C@H](CC(=O)O)NC(=O)[C@H]([C@@H](C)CC)NC(=O)[C@@H](NC(=O)[C@H](CO)NC(=O)[C@@H](N)CCCNC(=N)N)CSSC[C@@H](C(=O)O)NC(=O)[C@H]([C@@H](C)O)NC(=O)CNC3=O)C(=O)N[C@@H]([C@@H](C)O)C(=O)N[C@@H](C)C(=O)N[C@@H](Cc3ccccc3)C(=O)N[C@@H](CCC(N)=O)C(=O)N2)NC(=O)[C@H](Cc2ccccc2)NC(=O)[C@H](CO)NC(=O)[C@H](CC(C)C)NC(=O)[C@H](CCCNC(=N)N)NC(=O)[C@H](Cc2ccc(O)cc2)NC(=O)[C@H](CCCCN)NC1=O [M21Nle]
Equipotent Molar Ration (Analog IC50 /ShK IC50) Rat brain [1]: 0.8
effect on binding to either K channel subtype [1]: no significant affect on binding
IC50 [1]: 9 nM
Equipotent Molar Ration (Analog IC50 /ShK IC50) Lymphocyte [3]: 0.80

CC[C@H](C)[C@@H]1NC(=O)[C@@H](NC(=O)[C@H](CO)NC(=O)[C@@H](N)CCCNC(=N)N)CSSC[C@@H](C(=O)O)NC(=O)[C@H]([C@@H](C)O)NC(=O)CNC(=O)[C@@H]2CSSC[C@@H]3NC(=O)[C@H](CCC(N)=O)NC(=O)[C@H](Cc4ccccc4)NC(=O)[C@H](C)NC(=O)[C@H]([C@@H](C)O)NC(=O)[C@H](CSSC[C@H](NC(=O)[C@H](Cc4ccccc4)NC(=O)[C@H](CO)NC(=O)[C@H](CC(C)C)NC(=O)[C@H](CCCNC(=N)N)NC(=O)[C@H](Cc4ccc(O)cc4)NC(=O)[C@H](CCC(=O)O)NC(=O)[C@H](CCSC)NC(=O)[C@H](CO)NC(=O)[C@H](Cc4c[nH]cn4)NC(=O)[C@H](CCCCN)NC3=O)C(=O)N[C@@H](CCCNC(=N)N)C(=O)N[C@@H](CCCCN)C(=O)N[C@@H]([C@@H](C)O)C(=O)N2)NC(=O)[C@H](CCCNC(=N)N)NC(=O)[C@H](CO)NC(=O)[C@H](CCCCN)NC(=O)[C@@H]2CCCN2C(=O)[C@H]([C@@H](C)CC)NC(=O)[C@H]([C@@H](C)O)NC(=O)[C@H](CC(=O)O)NC1=O [K22E]
Equipotent Molar Ratio (Analog IC50 /ShK IC50) [1]: 726.0
Free Energy Differ. of Binding ΔF [1]: 3.86
binding affinity for rat brain K channels relative to wild-type ShK toxin, in words [1]: greatly reduced affinity

RSCADTIPKSRCTAAQCKHSMKYRLSFCRKRCGTC [A4 + A15]
Equipotent Molar Ratio (Analog IC50 /ShK IC50) [1]: 0.5
Free Energy Differ. of Binding ΔF [1]: -0.41
IC50 Ratio [1]: 0.5
binding affinity for rat brain K channels relative to wild-type ShK toxin, in words [1]: more potent than the wild-type toxin
ΔF [1]: -0.41

ShK R1A (peptide)
IC50 ratio (analog IC50/ShK IC50) [2]: 1.5
free energy difference of binding [2]: 0.23 kcal/mol

CC[C@H](C)[C@@H]1NC(=O)[C@@H](NC(=O)[C@H](CO)NC(=O)[C@@H](N)CCCNC(=N)N)CSSC[C@@H](C(=O)O)NC(=O)[C@H]([C@@H](C)O)NC(=O)CNC(=O)[C@@H]2CSSC[C@@H]3NC(=O)[C@H](CCC(N)=O)NC(=O)[C@H](Cc4ccccc4)NC(=O)[C@H](C)NC(=O)[C@H]([C@@H](C)O)NC(=O)[C@H](CSSC[C@H](NC(=O)[C@H](Cc4ccccc4)NC(=O)[C@H](CO)NC(=O)[C@H](CC(C)C)NC(=O)[C@H](CCCNC(=N)N)NC(=O)[C@H](Cc4ccc(O)cc4)NC(=O)[C@H](CCCCN)NC(=O)[C@H](CCSC)NC(=O)[C@H](CO)NC(=O)[C@H](CCCCN)NC(=O)[C@H](CCCCN)NC3=O)C(=O)N[C@@H](CCCNC(=N)N)C(=O)N[C@@H](CCCCN)C(=O)N[C@@H]([C@@H](C)O)C(=O)N2)NC(=O)[C@H](CCCNC(=N)N)NC(=O)[C@H](CO)NC(=O)[C@H](CCCCN)NC(=O)[C@@H]2CCCN2C(=O)[C@H]([C@@H](C)CC)NC(=O)[C@H]([C@@H](C)O)NC(=O)[C@H](CC(=O)O)NC1=O [H19K]
Equipotent Molar Ratio (Analog IC50 /ShK IC50) [1]: 2.6
Free Energy Differ. of Binding ΔF [1]: 0.56
IC50 Ratio [1]: 2.6
binding affinity for rat brain K channels relative to wild-type ShK toxin, in words [1]: slightly reduced IC50 ratio
ΔF [1]: 0.56

RSCIDTIPKSRCTAPQCKHSMKYRLSFCRATCGTC [K30A]
Difference of Free Energy of Binding [1]: 0.98
IC50 Ratio [1]: 5.3
increase in relative free energy of binding [1]: approximately 1 kcal/mol

CC[C@H](C)[C@@H]1NC(=O)[C@@H](NC(=O)[C@H](CO)NC(=O)[C@@H](N)CCCNC(=N)N)CSSC[C@@H](C(=O)O)NC(=O)[C@H]([C@@H](C)O)NC(=O)CNC(=O)[C@@H]2CSSC[C@@H]3NC(=O)[C@H](CCC(N)=O)NC(=O)[C@H](Cc4ccccc4)NC(=O)[C@H](C)NC(=O)[C@H]([C@@H](C)O)NC(=O)[C@H](CSSC[C@H](NC(=O)[C@H](Cc4ccccc4)NC(=O)[C@H](CO)NC(=O)[C@H](CC(C)C)NC(=O)[C@H](CCCNC(=N)N)NC(=O)[C@H](Cc4ccc(O)cc4)NC(=O)[C@H](CCCCN)NC(=O)[C@H](CCSC)NC(=O)[C@H](CO)NC(=O)[C@H](Cc4c[nH]cn4)NC(=O)[C@H](CCCCN)NC3=O)C(=O)N[C@@H](CCCNC(=N)N)C(=O)N[C@@H](CCCCN)C(=O)N[C@@H]([C@@H](C)O)C(=O)N2)NC(=O)[C@H](CCCNC(=N)N)NC(=O)[C@H](CO)NC(=O)[C@H](CCCCN)NC(=O)[C@@H]2CCCN2C(=O)[C@H](C)NC(=O)[C@H]([C@@H](C)O)NC(=O)[C@H](CC(=O)O)NC1=O [I7A]
Difference of Free Energy of Binding [1]: 0.96
IC50 Ratio [1]: 5.2
increase in relative free energy of binding [1]: approximately 1 kcal/mol

ShK K9A (peptide)
IC50 ratio (analog IC50/ShK IC50) [2]: 1.3
free energy difference of binding [2]: 0.15 kcal/mol

CC[C@H](C)[C@@H]1NC(=O)[C@@H](NC(=O)[C@H](CO)NC(=O)[C@@H](N)CCCNC(=N)N)CSSC[C@@H](C(=O)O)NC(=O)[C@H]([C@@H](C)O)NC(=O)CNC(=O)[C@@H]2CSSC[C@@H]3NC(=O)[C@H](CCC(N)=O)NC(=O)[C@H](Cc4ccccc4)NC(=O)[C@H](C)NC(=O)[C@H]([C@@H](C)O)NC(=O)[C@H](CSSC[C@H](NC(=O)[C@H](Cc4ccccc4)NC(=O)[C@H](CO)NC(=O)[C@H](CC(C)C)NC(=O)[C@H](CCCNC(=N)N)NC(=O)[C@H](Cc4ccc(O)cc4)NC(=O)[C@H](CCCCN)NC(=O)[C@H](CCSC)NC(=O)[C@H](CO)NC(=O)[C@H](Cc4c[nH]cn4)NC(=O)[C@H](CCCCN)NC3=O)C(=O)N[C@@H](CCCNC(=N)N)C(=O)N[C@@H](CCCCN)C(=O)N[C@@H]([C@@H](C)O)C(=O)N2)NC(=O)[C@H](CCCNC(=N)N)NC(=O)[C@H](CO)NC(=O)[C@H](C)NC(=O)[C@@H]2CCCN2C(=O)[C@H]([C@@H](C)CC)NC(=O)[C@H]([C@@H](C)O)NC(=O)[C@H](CC(=O)O)NC1=O [K9A]
Difference of Free Energy of Binding [1]: 0.15
IC50 Ratio [1]: 1.3

CC[C@H](C)[C@@H]1NC(=O)[C@@H](NC(=O)[C@H](CO)NC(=O)[C@@H](N)CCCNC(=N)N)CSSC[C@@H](C(=O)O)NC(=O)[C@H]([C@@H](C)O)NC(=O)CNC(=O)[C@@H]2CSSC[C@@H]3NC(=O)[C@H](CCC(N)=O)NC(=O)[C@H](Cc4ccccc4)NC(=O)[C@H](C)NC(=O)[C@H]([C@@H](C)O)NC(=O)[C@H](CSSC[C@H](NC(=O)[C@H](Cc4ccccc4)NC(=O)[C@H](CO)NC(=O)[C@H](CC(C)C)NC(=O)[C@H](CCCNC(=N)N)NC(=O)[C@H](CO)NC(=O)[C@H](CCCCN)NC(=O)[C@H](CCSC)NC(=O)[C@H](CO)NC(=O)[C@H](Cc4c[nH]cn4)NC(=O)[C@H](CCCCN)NC3=O)C(=O)N[C@@H](CCCNC(=N)N)C(=O)N[C@@H](CCCCN)C(=O)N[C@@H]([C@@H](C)O)C(=O)N2)NC(=O)[C@H](CCCNC(=N)N)NC(=O)[C@H](CO)NC(=O)[C@H](CCCCN)NC(=O)[C@@H]2CCCN2C(=O)[C@H]([C@@H](C)CC)NC(=O)[C@H]([C@@H](C)O)NC(=O)[C@H](CC(=O)O)NC1=O [Y23S]
IC50 [1]: > 5000 nM

RSCIDTIPKSRCTAPQCKHSMKYRLSFCRKTCGAC [T34A]
Difference of Free Energy of Binding [1]: 0.0
IC50 Ratio [1]: 1.0

ShK P8A (peptide)
IC50 ratio (analog IC50/ShK IC50) [2]: 1.9
free energy difference of binding [2]: 0.38 kcal/mol

RSCIDTIPKSRCTAPQCKHSMKYRLSFCRKACGTC [T31A]
Difference of Free Energy of Binding [1]: -0.30
IC50 Ratio [1]: 0.6
binding affinity for rat brain K channels relative to wild-type ShK toxin, in words [1]: increased affinities
